Reference: patent publication US5036054A, “Renin inhibitors containing alpha-heteroatom amino acids” (Warner-Lambert Company, priority 1988, dated 1991)

Molecular target: T1, renin (Homo sapiens, UniProt P00797)
T1 sequence (P00797 67-406): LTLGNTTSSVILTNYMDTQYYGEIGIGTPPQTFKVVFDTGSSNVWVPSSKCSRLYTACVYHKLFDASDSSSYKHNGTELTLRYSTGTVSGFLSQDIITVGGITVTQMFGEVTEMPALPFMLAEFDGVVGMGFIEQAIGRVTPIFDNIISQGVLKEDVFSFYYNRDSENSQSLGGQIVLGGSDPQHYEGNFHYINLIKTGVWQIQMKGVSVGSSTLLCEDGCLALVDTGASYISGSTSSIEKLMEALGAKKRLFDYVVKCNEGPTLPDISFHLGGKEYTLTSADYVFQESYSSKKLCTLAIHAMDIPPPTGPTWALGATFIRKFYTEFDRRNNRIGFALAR
Test: in vitro renin inhibitory activity, radioimmunoassay for angiotensin I
Format: biochemical
Conditions: 10^-6 molar test compound; renin incubated 2 hours at 37° with substrate angiotensinogen; angiotensin I by radioimmunoassay
Protocol: The effectiveness of the aforementioned compounds is determined by a test for in vitro renin inhibitory activity. This activity is determined by a standard radioimmunoassay for angiotensin I. In this assay the enzyme, renin, incubated for 2 hours at 37° in the presense of a substrate, angiotensinogen, generates the product, angiotensin I. Test compounds are added to the incubation mixture. Relative activity is reported as the percent inhibition at 10^-6 molar concentration.

Point of comparison: `CCC(C)CNC(=O)CC(O)C(CC(C)C)NC(=O)C(N)NC(=O)C(Cc1cccc2ccccc12)Cc1cccc2ccccc12` (single isomer, unassigned) [DNMANHCH(NH2)COSTANHCH2 CH(CH3)CH2 CH3 (fast isomer), DNMA-NHCH(NH2)CO-STA-NHCH2 CH(CH3)CH2 CH3], “Activity % Inhibition @ 10^-6 M” value 9%. Against it:
- CCOC(=O)NC(NC(=O)C(Cc1cccc2ccccc12)Cc1cccc2ccccc12)C(=O)NC(CC(C)C)C(O)CC(=O)NCC(C)CC (centres unmarked) [DNMA-NHCH(NHCO2 Et)CO-STA-NHCH2 CH(CH3)CH2 CH3] — higher, 40%
- DNMA-NHCH(NHCH(CH3)2)CO-STA-NHCH2 CH(CH3)CH2 CH3 [DNMA-NHCH(NHCH(CH3)2)COSTANHCH2 CH(CH3)CH2 CH3 (slow isomer)] — higher, 60%
- DNMA-NHCH(OC2 H5)CO-STA-NHCH2 CH(CH3)CH2 CH3 [DNMANHCH(OC2 H5)COSTANHCH2 CH(CH3)CH2 CH3 (slow isomer)] — higher, 15%
- CCC(C)CNC(=O)CC(O)C(CC(C)C)NC(=O)C(NC(=O)C(Cc1cccc2ccccc12)Cc1cccc2ccccc12)N(C)C (single isomer, unassigned) [DNMANHCH(N(CH3)2)COSTANHCH2 CH(CH3)CH2 CH3 (slow isomer), DNMA-NHCH(N(CH3)2 CO-STA-NHCH2 CH(CH3)CH2 CH3] — higher, 55%
- CCC(C)CNC(=O)CC(O)C(CC(C)C)NC(=O)C(NC(=O)C(Cc1cccc2ccccc12)Cc1cccc2ccccc12)SC(C)C (single isomer, unassigned) [DNMANHCH(SCH(CH3)2)COSTANHCH2 CH(CH3)CH2 CH3 (slow isomer), DNMA-NHCH(SCH(CH3)2)CO-STA-NHCH2 CH(CH3)CH2 CH3] — higher, 26%
- DNMA-NHCH(NH(CH2)3 NHCSNHCH3)CO-STA-NHCH2 CH(CH3)CH2 CH3 — higher, 36%
- CCC(C)CNC(=O)CC(O)C(CC(C)C)NC(=O)C(NC(C)=O)NC(=O)C(Cc1cccc2ccccc12)Cc1cccc2ccccc12 (centres unmarked) [DNMA-NHCH(NHCOCH3)CO-STA-NHCH2 CH(CH3)CH2 CH3] — higher, 39%
- CCC(C)CNC(=O)CC(O)C(CC(C)C)NC(=O)C(NC(=O)C(Cc1cccc2ccccc12)Cc1cccc2ccccc12)[S+](C)[O-] (centres unmarked) [DNMANHCH(SOCH3)COSTANHCH2 CH(CH3)CH2 CH3, DNMA-NHCH(SOCH3)CO-STA-NHCH2 CH(CH3)CH2 CH3] — higher, 35%
- DNMA-NHCH(NH2)CO-STA-NHCH2 CH(CH3)CH2 CH3 [DNMANHCH(NH2)COSTANHCH2 CH(CH3)CH2 CH3 (slow isomer)] — higher, 54%
- CCC(C)CNC(=O)CC(O)C(CC(C)C)NC(=O)C(NC(=O)C(Cc1cccc2ccccc12)Cc1cccc2ccccc12)SC(C)C (single isomer, unassigned) [DNMANHCH(SCH(CH3)2)COSTANHCH2 CH(CH3)CH2 CH3 (fast isomer), DNMA-NHCH(SCH(CH3)2)CO-STA-NHCH2 CH(CH3)CH2 CH3] — higher, 87%
- CCC(C)CNC(=O)CC(O)C(CC(C)C)NC(=O)C(NC(=O)C(Cc1cccc2ccccc12)Cc1cccc2ccccc12)Sc1ccccc1 (centres unmarked) [DNMANHCH(SPh)COSTANHCH2 CH(CH3)CH2 CH3, DNMA-NHCH(SPh)CO-STA-NHCH2 CH(CH3) CH2 CH3] — higher, 40%
- DNMA-NHCH(NHC2 H5)CO-STA-NHCH2 CH(CH3) CH2 CH3 [DNMANHCH(NHC2 H5)COSTANHCH2 CH(CH3)CH2 CH3 (slow isomer)] — higher, 71%
- CCC(C)CNC(=O)CC(O)C(CC(C)C)NC(=O)C(NC(=O)C(Cc1cccc2ccccc12)Cc1cccc2ccccc12)Nc1ccccc1 (centres unmarked) [DNMANHCH(NHPh)COSTANHCH2 CH(CH3)CH2 CH3, DNMA-NHCH(NHPh)CO-STA-NHCH2 CH(CH3)CH2 CH3] — higher, 56%
- CCC(C)CNC(=O)CC(O)C(CC(C)C)NC(=O)C(NC(=O)C(Cc1cccc2ccccc12)Cc1cccc2ccccc12)SC (centres unmarked) [DNMANHCH(SCH3)COSTANHCH2 CH(CH3)CH2 CH3, DNMA-NHCH(SCH3)CO-STA-NHCH2 CH(CH3)CH2 CH3] — higher, 86%
- CCC(C)CNC(=O)C[C@H](O)[C@H](CC(C)C)NC(=O)C(NC(=O)C(Cc1cccc2ccccc12)Cc1cccc2ccccc12)OC (some centres unmarked) [DNMANHCH(OCH3)COSTANHCH2 CH(CH3)CH2 CH3, DNMA-NHCH(OCH3)CO-STA-NHCH2 CH(CH3)CH2 CH3] — higher, 90%
- CCOC(NC(=O)C(Cc1cccc2ccccc12)Cc1cccc2ccccc12)C(=O)N[C@@H](CC(C)C)[C@@H](O)CC(=O)NCC(C)CC (single isomer, unassigned) [DNMANHCH(OC2 H5)COSTANHCH2 CH(CH3)CH2 CH3 (fast isomer), DNMA-NHCH(OC2 H5)CO-STA-NHCH2 CH(CH3)CH2 CH3] — higher, 100%
